Laboratory results as given in patent US9682955B2, “Quinazoline derivatives useful as CB-1 inverse agonists” (Janssen Pharmaceutica NV, priority 2014, dated 2017).

How the values were obtained:
[1] = molecular target: Human CB2R (Cannabanoid receptor 2) (Homo sapiens (Human), UniProt P34972); assay: CB-2 in vitro cAMP assay (HTRF); type: cell-based; details: mean where tested more than once
Outline: (§1)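 HEK-293 cells stably transfected with the human receptor, plated overnight at 4E5 cells/mL. Compounds given as 1/3 serial dilutions from 10 mM DMSO stocks. Stimulation in HBSS/5 mM HEPES/0.1% BSA with 0.5 mM IBMX and forskolin (1.5 μM in buffer); cAMP measured by competitive HTRF immunoassay (d2-cAMP, cryptate anti-cAMP) against a cAMP standard curve.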

[2] = molecular target: Human CB1R (Cannabanoid receptor 1) (Homo sapiens (Human), UniProt P21554); assay: CB-1 in vitro cAMP assay (HTRF); type: cell-based; details: mean where tested more than once
Outline: as §1

Human CB1R (Cannabanoid receptor 1), sequence (P21554 whole entry): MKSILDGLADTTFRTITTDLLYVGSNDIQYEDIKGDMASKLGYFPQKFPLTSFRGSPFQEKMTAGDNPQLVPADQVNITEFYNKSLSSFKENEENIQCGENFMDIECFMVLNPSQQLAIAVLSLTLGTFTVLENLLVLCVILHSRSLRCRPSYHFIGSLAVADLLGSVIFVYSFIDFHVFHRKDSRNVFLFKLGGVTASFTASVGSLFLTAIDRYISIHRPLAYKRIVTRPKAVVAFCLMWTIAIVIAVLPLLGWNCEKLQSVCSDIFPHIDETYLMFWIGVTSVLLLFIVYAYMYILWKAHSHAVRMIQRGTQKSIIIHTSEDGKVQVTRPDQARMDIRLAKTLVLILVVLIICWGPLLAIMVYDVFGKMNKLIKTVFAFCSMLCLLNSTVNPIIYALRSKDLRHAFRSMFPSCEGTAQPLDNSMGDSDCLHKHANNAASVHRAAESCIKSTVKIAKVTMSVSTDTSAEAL
Human CB2R (Cannabanoid receptor 2), sequence (P34972 whole entry): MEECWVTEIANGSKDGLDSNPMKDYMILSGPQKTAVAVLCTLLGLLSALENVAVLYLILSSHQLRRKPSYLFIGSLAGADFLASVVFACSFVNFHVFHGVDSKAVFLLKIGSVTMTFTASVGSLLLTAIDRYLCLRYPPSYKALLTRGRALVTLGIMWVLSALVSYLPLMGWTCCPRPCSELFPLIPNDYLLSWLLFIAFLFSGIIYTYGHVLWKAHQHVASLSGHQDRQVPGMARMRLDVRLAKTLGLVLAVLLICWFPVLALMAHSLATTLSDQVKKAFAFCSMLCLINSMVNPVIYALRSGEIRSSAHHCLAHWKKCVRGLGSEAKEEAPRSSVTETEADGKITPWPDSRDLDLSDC

| EC50 [1] | EC50 [2] | Compound |
| --- | --- | --- |
| > 10000 nM | 52 nM | FC(F)(F)c1ccc(Nc2ncnc3ccc(C(c4ccc(Cl)cc4)c4ccc(Cl)cc4)cc23)cc1Cl [Compound #122, 6-(bis(4-chlorophenyl)methyl)-N-(3-chloro-4-(trifluoromethyl)phenyl)quinazolin-4-amine] |
| > 10000 nM | 20 nM | COC(=O)c1ccc(CNc2ncnc3ccc(C(c4ccc(Cl)cc4)c4ccc(Cl)cc4)cc23)cc1 [compound 61, methyl 4-((6-(bis(4-chlorophenyl)methyl)quinazolin-4-ylamino)methyl)benzoate] |
| > 10000 nM | 124 nM | Clc1ccc(C(c2ccc(Cl)cc2)c2ccc3ncnc(NC4CCN(CCc5ccccc5)CC4)c3c2)cc1 [Compound #11, 6-(bis(4-chlorophenyl)methyl)-N-(1-phenethylpiperidin-4-yl)quinazolin-4-amine] |
| 1470 nM | 8 nM | O=C(NC(CO)(CO)CO)c1ccc(S(=O)(=O)N2CCC(Nc3ncnc4ccc(C(c5ccc(Cl)cc5)c5ccc(Cl)cc5)cc34)CC2)cc1 [Compound #41, 4-((4-((6-(Bis(4-chlorophenyl)methyl)quinazolin-4-yl)amino)piperidin-1-yl)sulfonyl)-N-(1,3-dihydroxy-2-(hydroxymethyl)propan-2-yl)benzamide] |
| 195 nM | 695 nM | O=C(O)c1ccc(N2CCC(Nc3ncnc4ccc(C(c5ccc(Cl)cc5)c5ccc(Cl)cc5)cc34)CC2)cc1 [Compound #92, 4-(4-((6-(bis(4-chlorophenyl)methyl)quinazolin-4-yl)amino)piperidin-1-yl)benzoic acid] |
| > 10000 nM | 950 nM | O=C(O)c1ccc(C(=O)N2CCC(Nc3ncnc4ccc(C(c5ccc(Cl)cc5)c5ccc(Cl)cc5)cc34)CC2)cc1 [Compound #68, 4-(4-((6-(bis(4-chlorophenyl)methyl)quinazolin-4-yl)amino)piperidine-1-carbonyl)benzoic acid] |
| > 10000 nM | 15 nM | CC(C)OC(=O)OCOC(=O)c1ccc(S(=O)(=O)N2CCC(Nc3ncnc4ccc(C(c5ccc(Cl)cc5)c5ccc(Cl)cc5)cc34)CC2)cc1 [Compound #64, ((Isopropoxycarbonyl)oxy)methyl 4-((4-((6-(bis(4-chlorophenyl)methyl)quinazolin-4-yl)amino)piperidin-1-yl)sulfonyl)benzoate] |
| 514 nM | 41 nM | O=C(O)c1ccc(S(=O)(=O)N2CCC(Nc3nc(OCCO)nc4ccc(C(c5ccc(Cl)cc5)c5ccc(Cl)cc5)cc34)CC2)cc1 [Compound #39, 4-((4-((6-(bis(4-chlorophenyl)methyl)-2-(2-hydroxyethoxy)quinazolin-4-yl)amino)piperidin-1-yl)sulfonyl)benzoic acid] |
| 1200 nM | 10 nM | Fc1cccc(CNc2ncnc3ccc(C(c4ccc(Cl)cc4)c4ccc(Cl)cc4)cc23)c1 [compound 63, 6-(bis(4-chlorophenyl)methyl)-N-(3-fluorobenzyl)quinazolin-4-amine] |
| > 10000 nM | 343 nM | O=C(O)c1ccc(C(c2ccc(Cl)cc2)c2ccc3ncnc(NC4CCN(S(=O)(=O)C(F)(F)F)CC4)c3c2)cc1 (stereo not drawn) [Compound #16, 4-((4-chlorophenyl)(4-((1-((trifluoromethyl)sulfonyl)piperidin-4-yl)amino)quinazolin-6-yl)methyl)benzoic acid] |
| 2140 nM | 3 nM | O=S(=O)(c1ccc(F)cc1)N1CCC(Nc2ncnc3ccc(C(c4ccc(Cl)cc4)c4ccc(Cl)cc4)cc23)CC1 [compound 121, 6-(bis(4-chlorophenyl)methyl)-N-(1-(4-fluorophenylsulfonyl)piperidin-4-yl)quinazolin-4-amine] |
| > 10000 nM | 574 nM | O=S(=O)(c1ccc(Nc2ncnc3ccc(C(c4ccc(Cl)cc4)c4nccs4)cc23)cc1)C(F)(F)F (stereo not drawn) [Compound #142, 6-((4-chlorophenyl)(thiazol-2-yl)methyl)-N-(4-((trifluoromethyl)sulfonyl)phenyl)quinazolin-4-amine] |
| 7640 nM | 4000 nM | O=C(O)c1cccc(CN2CCC(Nc3ncnc4ccc(C(c5ccc(Cl)cc5)c5ccc(Cl)cc5)cc34)C2)c1 (stereo not drawn) [compound 17, 3-((3-(6-(bis(4-chlorophenyl)methyl)quinazolin-4-ylamino)pyrrolidin-1-yl)methyl)benzoic acid] |
| 1060 nM | 325 nM | O=C(O)c1cccc(CCNc2ncnc3ccc(C(c4ccc(Cl)cc4)c4ccc(Cl)cc4)cc23)c1 [Compound #2, 3-(2-((6-(bis(4-chlorophenyl)methyl)quinazolin-4-yl)amino)ethyl)benzoic acid] |
| 178 nM | 82 nM | NC(=O)Cc1ccc(N2CCC(Nc3ncnc4ccc(C(c5ccc(Cl)cc5)c5ccc(Cl)cc5)cc34)CC2)cc1 [Compound #74, 2-(4-(4-((6-(bis(4-chlorophenyl)methyl)quinazolin-4-yl)amino)piperidin-1-yl)phenyl)acetamide] |
| > 10000 nM | 446 nM | O=C(NCCCOc1ccc(CCl)cc1)c1ccc(S(=O)(=O)N2CCC(Nc3ncnc4ccc(C(c5ccc(Cl)cc5)c5ccc(Cl)cc5)cc34)CC2)cc1 [Compound #30, 4-((4-((6-(bis(4-chlorophenyl)methyl)quinazolin-4-yl)amino)piperidin-1-yl)sulfonyl)-N-(3-(4-(chloromethyl)phenoxy)propyl)benzamide] |
| 3880 nM | 106 nM | O=C(O)c1cccc(S(=O)(=O)N2CCC(Nc3ncnc4ccc(C(c5ccc(Cl)cc5)c5ccc(Cl)cc5)cc34)CC2)c1 [compound 101, 3-(4-(6-(bis(4-chlorophenyl)methyl)quinazolin-4-ylamino)piperidin-1-ylsulfonyl)benzoic acid] |
| 7900 nM | 232 nM | NC(=O)CS(=O)(=O)N1CCC(Nc2ncnc3ccc(C(c4ccc(Cl)cc4)c4ccc(Cl)cc4)cc23)CC1 [Compound #98, 2-((4-((6-(bis(4-chlorophenyl)methyl)quinazolin-4-yl)amino)piperidin-1-yl)sulfonyl)acetamide] |
| 8080 nM | 14 nM | COC(=O)c1cccc(CNc2ncnc3ccc(C(c4ccc(Cl)cc4)c4ccc(Cl)cc4)cc23)c1 [Compound #62, Methyl 3-(((6-(bis(4-chlorophenyl)methyl)quinazolin-4-yl)amino)methyl)benzoate] |
| > 10000 nM | 91 nM | FC(F)(F)c1ccc(Nc2ncnc3ccc(C(c4ccc(Cl)cc4)c4ccc(Cl)cc4)cc23)cc1 [Compound #143, 6-(bis(4-chlorophenyl)methyl)-N-(4-(trifluoromethyl)phenyl)quinazolin-4-amine] |
| > 10000 nM | 20 nM | O=C(NCCCOc1ccc(CO)cc1)c1ccc(S(=O)(=O)N2CCC(Nc3ncnc4ccc(C(c5ccc(Cl)cc5)c5ccc(Cl)cc5)cc34)CC2)cc1 [Compound #26, 4-((4-((6-(bis(4-chlorophenyl)methyl)quinazolin-4-yl)amino)piperidin-1-yl)sulfonyl)-N-(3-(4-(hydroxymethyl)phenoxy)propyl)benzamide] |
| 1670 nM | 10 nM | O=C(COc1nc(NCc2cccc(C(F)(F)F)c2)c2cc(C(c3ccc(Cl)cc3)c3ccc(Cl)cc3)ccc2n1)NCCO [Compound #40, 2-((6-(bis(4-chlorophenyl)methyl)-4-((3-(trifluoromethyl)benzyl)amino)quinazolin-2-yl)oxy)-N-(2-hydroxyethyl)acetamide] |
| > 10000 nM | 59 nM | COC(=O)c1ccc(CN2CCC(Nc3ncnc4ccc(C(c5ccc(Cl)cc5)c5ccc(Cl)cc5)cc34)CC2)cc1 [Compound #43, Methyl 4-((4-((6-(bis(4-chlorophenyl)methyl)quinazolin-4-yl)amino)piperidin-1-yl)methyl)benzoate] |
| 3500 nM | 85 nM | O=C(NCCO)c1cccc(N2CCC(Nc3ncnc4ccc(C(c5ccc(Cl)cc5)c5ccc(Cl)cc5)cc34)CC2)c1 [compound 83, 3-(4-(6-(bis(4-chlorophenyl)methyl)quinazolin-4-ylamino)piperidin-1-yl)-N-(2-hydroxyethyl)benzamide] |
| 3160 nM | 818 nM | O=C(O)c1cccc(N2CCC(Nc3ncnc4ccc(C(c5ccc(Cl)cc5)c5ccc(Cl)cc5)cc34)CC2)c1 [compound 95, 3-(4-(6-(bis(4-chlorophenyl)methyl)quinazolin-4-ylamino)piperidin-1-yl)benzoic acid] |
| 4440 nM | 13 nM | OCCOc1nc(NCc2cccc(C(F)(F)F)c2)c2cc(C(c3ccc(Cl)cc3)c3ccc(Cl)cc3)ccc2n1 [Compound #55, 2-((6-(bis(4-chlorophenyl)methyl)-4-((3-(trifluoromethyl)benzyl)amino)quinazolin-2-yl)oxy)ethanol] |
| 490 nM | 2 nM | FC(F)(F)CN1CCC(Nc2ncnc3ccc(C(c4ccc(Cl)cc4)c4ccc(Cl)cc4)cc23)CC1 [Compound #123, 6-(bis(4-chlorophenyl)methyl)-N-(1-(2,2,2-trifluoroethyl)piperidin-4-yl)quinazolin-4-amine] |
| > 10000 nM | 11 nM | N#CCCOCCOc1nc(NCc2cccc(C(F)(F)F)c2)c2cc(C(c3ccc(Cl)cc3)c3ccc(Cl)cc3)ccc2n1 [Compound #50, 3-(2-((6-(bis(4-chlorophenyl)methyl)-4-((3-(trifluoromethyl)benzyl)amino)quinazolin-2-yl)oxy)ethoxy)propanenitrile] |
| > 10000 nM | 799 nM | O=C(O)CC(=O)N1CCC(Nc2ncnc3ccc(C(c4ccc(Cl)cc4)c4ccc(Cl)cc4)cc23)CC1 [compound 88, 3-(4-(6-(bis(4-chlorophenyl)methyl)quinazolin-4-ylamino)piperidin-1-yl)-3-oxopropanoic acid] |
| 771 nM | 2 nM | Clc1ccc(C(c2ccc(Cl)cc2)c2ccc3ncnc(NC4CCN(c5ncccn5)CC4)c3c2)cc1 [Compound #139, 6-(bis(4-chlorophenyl)methyl)-N-(1-(pyrimidin-2-yl)piperidin-4-yl)quinazolin-4-amine] |
